In data set [1] the test system is P. berghei ANKA parasites. As to the kind of experiment: P. berghei 4-day mouse model. The conditions noted are these: for % parasitemia / % reduction in parasitemia: mice, day 4, oral gavage q.d. x4, 50 mg/kg (ART 30 mg/kg); for % reduction in parasitemia: versus vehicle control. In kind it is in vivo, Plasmodium berghei. As to the method:
The 4-day P. berghei mouse model is used to determine the preliminary in vivo efficacy of antimalarials at an early stage of optimization. To determine if cyclopropyl carboxamide series could reduce asexual blood stage infection, we evaluated representative compounds WJM280 (108) and analog 109 in the 4-day P. berghei mouse model. In this model, mice were infected P. berghei asexual stage parasites, and then 2 h after the infection, WJM280 (108) and analog 109 at 50 mg/kg and artesunate at 30 mg/kg were administered by oral gavage. The same compound doses were administered again, 24, 48, and 72 h post infection. Parasitemia was then quantified by preparing blood smears and visualizing by microscopy across days 2, 3, and 4. […] The inability of these compounds to reduce parasitemia was attributed to their high metabolic turnover, which is a characteristic that needs improving on further development of the cyclopropyl carboxamide class.
P. berghei 4-day Mouse Model. This model was conducted as previously described.

Data set [2] relates to P. falciparum 3D7 parasites. Briefly: P. falciparum 3D7 asexual stage LDH assay (72 h). In kind it is cell-based, Plasmodium falciparum. The conditions noted are these: Plasmodium falciparum, 3D7, 72 h, LDH activity of P. falciparum 3D7 parasites over 72 h; means and SDs, three or more experiments; read-out: Pf 3D7 EC50 (SD). The method in brief:
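Asexual P. falciparum 3D7 parasites were grown for 72 h over a 10-point, 3-fold series starting at 1 μM in 0.1% DMSO, with 100 nM chloroquine as negative growth control. After freeze-thaw, parasite LDH was read at 650 nm, and EC50 came from a variable-slope sigmoidal fit.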

Data set [3] is described as follows: Human liver microsome stability. The conditions noted are these: pooled human liver microsomes. The format is in vitro ADME. Here is the method:
Human Liver Microsome Stability. A solution of the test compounds in phosphate buffer solution (1 μM) was incubated in pooled human liver microsomes (0.5 mg/mL) for 0, 5, 20, 30, 45 and 60 min at 37 °C in the presence and absence of NADPH regeneration system. The reaction was terminated with the addition of ice-cold acetonitrile containing system suitability standard at designated time points. […] The experiment was carried out in duplicate. Verapamil, diltiazem, phenacetin, and imipramine were used as reference standards.

A short description of data set [4]: eLogD (shake-flask, pH 7.4). The format is physicochemical. The conditions noted are these: 1-octanol/phosphate buffered saline (1:1, v/v), Shake-flask method. Here is the method: eLogD. The LogD (pH 7.4) assay was performed using a miniaturized shake flask method. A solution of a pre-saturated mixture of 1-octanol and phosphate buffered saline (PBS) (1:1, v/v) and the test compound (75 μM) was incubated at 25 °C with constant shaking (850 rpm) for 2 h. After incubation the organic and aqueous phases were separated, and samples of each phase transferred to plate for dilution. The organic phase was diluted to 1000-fold and the aqueous phase was diluted 20-fold. The samples were quantitated using LC-MS/MS. The experiment was carried out in duplicate. Propranolol, amitriptyline, and midazolam were used as reference standards.

The next data set can be described thus: Rat hepatocyte stability. In kind it is in vitro ADME. The conditions noted are these: pooled rat hepatocytes. Here is the method: Rat Hepatocyte Stability. A solution of the test compound in Krebs-Henseliet buffer solution (1 μM) was incubated in pooled rat hepatocytes (1 × 10^6 cells/mL) for 0, 15,30,45, 60, 75 and 90 min at 37 °C (5 % CO2, 95 % relative humidity). The reaction was terminated with the addition of ice-cold acetonitrile containing system suitability standard at designated time points. […] The experiment was carried out in duplicate. Diltiazem, 7-ethoxy coumarin, propranolol, and midazolam were used as reference standards.

Data set [5] in a line: Human HepG2 growth inhibition assay (Cell TitreGlo, 48 h). In kind it is cell-based. The conditions noted are these: human, HepG2 cells, HepG2 cell growth inhibition over 48 h. In outline:
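HepG2 cells (1000/well, DMEM + 10% FCS) exposed 48 h at 37 °C, 5% CO2 to compound from 50 μM top concentration in 1:2 dilutions, 0.5% DMSO final. Viability read by Cell Titer Glo, normalised to DMSO and 10 μM bortezomib; EC50 by four-parameter variable-slope fit.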

The next data set concerns male gamete. Briefly: Dual gamete formation assay, male gametes. The conditions noted are these: Plasmodium falciparum; NF54 parasites in a DGFA, 4 replicates. The format is cell-based. As to the method: (§1) To determine whether the cyclopropyl carboxamide class has transmission blocking potential we profiled selected analogs in a dual gamete formation assay. In this assay, stage V gametocytes are treated with compound, and gametogenesis is induced by the addition of xanthurenic acid. Male gamete viability is determined by an imaging algorithm measuring motile flagellation, while female viability is measured using an antibody to the female-specific Pfs25 surface marker. […] Collectively, the activity observed against male gametes is consistent with activity observed with other cyt b inhibitors.
(§2) Dual Gamete Formation Assay. Compounds were evaluated as previously described as a platform run at both Imperial College London and the London School of Hygiene and Tropical Medicine. Briefly, mature stage V gametocytes were exposed to compounds for 48 h at 37 °C in 384 well plates in gametocyte culture medium (RPMI 1640 supplemented with 25 mM HEPES, 50 μg/mL hypoxanthine, 4.8 g/L NaHCO3, 2 mM L-glutamine, 5 % pooled type AB serum, 0.5 % Albumax II (Gibco)) under a 1 % O2/3 % CO2/96 % N2 environment. Gametogenesis was then triggered by the addition of 10 μL ookinete medium (gametocyte culture medium supplemented with 100 μM xanthurenic acid and 0.27 μg/mL Cy3-labelled anti-Pfs25 antibody) to each well at room temperature. Plates were then cooled on a metal block at 4 °C for 4 min to ensure even cooling and then stabilized for a further 4 min at 28 °C. At 20 min post-induction, male gametogenesis was recorded in each well by automated brightfield microscopy using a × 4 objective lens and 1.5 × magnifier ( × 6 effective magnification). Afterward, plates were incubated in the dark at room temperature for 24 h and then female gametogenesis recorded in each well by automated fluorescence microscopy (anti-Pfs25-positive cells). […] All data was evaluated in comparison to the positive and negative controls to calculate percentage inhibition of male and female gametocytes, and dose response analysis and EC50 calculation performed using GraphPad Prism.

In a further data set the test system is female gamete. Briefly: Dual gamete formation assay, female gametes. The format is cell-based. The conditions noted are these: Plasmodium falciparum; NF54 parasites in a DGFA, 4 replicates. As to the method: as §1, §2
Data set [6] can be described thus: Aqueous solubility (kinetic in PBS, pH 7.4). The format is physicochemical. The conditions noted are these: phosphate buffered saline. As to the method: Solubility. The solubility assay was performed using a miniaturized shake flask method. A solution of phosphate buffered saline (PBS) and the test compound (200 μM) was incubated at 25 °C with constant shaking (600 rpm) for 2 h. The samples were filtered using a multiscreen solubility filter plate. The filtrate was half diluted in acetonitrile. A five-point linearity curve was prepared in PBS:acetonitrile (1:1, v/v) at 200, 150, 75, 25 and 2.5 μM. Blank, linearity and test samples (n = 2) were transferred to a UV readable plate and the plate was scanned for absorbance. Best fit calibration curves were constructed using the calibration standards and used to determine the test sample solubility. The experiment was carried out in duplicate. Diethylstilbestrol, haloperidol, and diclofenac sodium were used as reference standards.

Structures are written as SMILES. Converted amounts (≈) assume the structure as drawn.

The EC50 is the concentration at which the effect is half-maximal. The microsomal CLint is a measure of how fast metabolising enzymes remove a compound, apart from limits set by blood flow. Lower therefore signals slow turnover. In general, logD refers to the decadic logarithm of the distribution of all forms, ionised or not, between an organic phase and buffer at a given pH. A low value points to lower lipophilicity. In general, hepatocyte CLint refers to the capacity of the preparation to metabolise the compound, expressed as a volume cleared per time. What is called CC50 is the concentration at which the toxic effect on the cells reaches its halfway point. A word on the solubility: it is how much of the substance goes into solution per volume. A higher solubility goes with much dissolved substance.

Consider `C[C@H]1[C@H](OC(=O)CCC(=O)O)O[C@@H]2O[C@@]3(C)CC[C@H]4[C@H](C)CC[C@@H]1[C@@]24OO3` [ART, artesunate, reference compound], for which, in data set [1], the “% parasitemia” value is listed as 2.3% and the “% reduction in parasitemia” value was determined as 97.7%.
In the case of `CCCN(Cc1ccc(C(=O)NC2CC2)cc1)Cc1ccc(C(C)(C)C)cc1` [Compound 107, 4-(((4-(tert-Butyl)benzyl) (propyl)amino)methyl)-N-cyclopropylbenzamide], the figures for the 50% effective concentration (EC50) (in [2]; in the data set with male gamete; in the data set on female gamete) were 20 nM, 80 nM and 21600 nM, respectively. The compound also displayed a microsomal CLint at 1 h, 1 µM in data set [3] of 263 µL/min/mg. In [4], this compound displayed a logD at 2 h of 4.9. The compound further had a hepatocyte CLint at 1.5 h, 1 µM in the data set “Rat hepatocyte stability” of 92 µL/min/1e6 cells. In data set [5], this compound displayed a CC50 at 48 h greater than 40000 nM. For the same compound, the concentration in solution in data set [6] (solubility at 2 h) came to 10 µM (≈ 3.79 µg/mL).
As for `CCCN(Cc1ccc(C(=O)NC2CC2)cc1)Cc1cc(C(F)(F)F)cc(C(F)(F)F)c1` [Compound 109, 4-(((3,5-Bis(trifluoromethyl)benzyl) (propyl)amino)methyl)-N-cyclopropylbenzamide], in data set [2], the EC50 came out at 30 nM. Further, the microsomal CLint at 1 h, 1 µM in [3] was found to be 65 µL/min/mg. Further, the logD at 2 h in data set [4] came to 5. This compound also gave a hepatocyte CLint at 1.5 h, 1 µM in “Rat hepatocyte stability” of 60 µL/min/1e6 cells. This compound showed a CC50 at 48 h in data set [5] of 10000 nM. The solubility at 2 h in data set [6] was 2.5 µM (≈ 1.15 µg/mL). Further, in [1] (50 mg/kg q.d. oral, 4 days), the “body weights of mice” value is listed as “slightly reduced”. Besides, in data set [1], the “% parasitemia” value was determined as 91% and the “% reduction in parasitemia” value came out at 9%.
With `CCCN(Cc1ccc(C(=O)NC2CC2)cc1)Cc1c(C)cc(C)cc1C` [Compound 110, N-Cyclopropyl-4-((propyl(2,4,6-trimethylbenzyl)amino)methyl)benzamide], the half-maximal effective concentration (EC50) in data set [2] was 80 nM; in the data set with male gamete it was 280 nM; in the data set on female gamete, greater than 25000 nM. In [5], the CC50 at 48 h is greater than 40000 nM.

Source of the values: article PMC11609934, “Exploration and characterization of the antimalarial activity of cyclopropyl carboxamides that target the mitochondrial protein, cytochrome b” (European Journal of Medicinal Chemistry, 2024).
